Source: PMC12598698, “Synergistic Cancer Metabolic Therapy via Co-Delivery of 3‑Bromopyruvate and Temozolomide with a Supramolecular Shuttle” (ACS Applied Materials & Interfaces, 2025)
Where “and” joins values, the source holds several entries; their conditions need not be identical. Equal entries are not always repeated.

What was measured:
[1] = test system: U-87 MG cells (2D); details: highest tested concentration 250 μM, 72 h; ref previous work; cited from earlier work
Protocol: Combining drugs with different mechanisms of action targeting distinct cellular pathways can help overcome resistance and produce a synergistic effect, thereby enhancing the overall anticancer efficacy. The combined cytotoxic effect of the nanofiber NF-TMZ-BrP, cofunctionalized with BrP and TMZ (both at 5 μM), was evaluated in 2D and 3D-U87 cells at 24, 48, and 72 h. […] After 72 h, the cytotoxic effect became more pronounced, with appro ...

[2] = test system: mitochondria isolated from rat brain; experiment: Mitochondrial respiration (Clark-type electrode); format: biochemical; details: 5 μM, 8 min preincubation, 37 °C, ADP 300 μM
Protocol: Male Wistar rats (275–300 g) were obtained from Envigo RMS Srl (Udine, Italy). Animals were housed in a temperature-controlled environment (22 °C) under a 12:12 h light–dark cycle, with food and water available ad libitum. All procedures were conducted in strict accordance with European guidelines for the care and use of laboratory animals. Every attempt was made to reduce the suffering and discomfort experienced by the animals. Experimental protocols were approved by the Committee on the Ethics of Animal Experiments of the University of Naples Federico II (Italy) and the Italian Minister of Health (protocol number 776/2021-Pr). Rats were anesthetized by ip injection of tiopental (40 mg/100 body weight) and euthanized by decapitation. Brains were immediately excised, weighed, and processed for mitochondrial isolation, following the method described by Sumbalova et al. Briefly, brain tissues were immersed in ice-cold isolation buffer (330 mM sucrose, 10 mM Tris-HCl, 1 mM EDTA, and 2.5 g/L fatty acid-free BSA, pH 7.4) and homogenized using a Potter-Elvehjem homogenizer. […] Mitochondrial respiration rate was measured polarographically using a Clark-type electrode (Clark-type electrode, Oxygraph system, Hansatech Instruments Ltd., UK). […]

[3] = test system: mitochondria isolated from rat brain; experiment: EPR analysis of ROS production upon mitochondria respiration (Mito-TEMPO); format: biochemical; details: succinate without rotenone, 37 °C, 8 min preincubation
Protocol: Investigation of the redox status in mitochondria was performed using the Mito-TEMPO paramagnetic spin probe, which is a mitochondria-penetrating nitroxide radical that allows evaluation of the level of ROS (mainly superoxides) produced during respiration. The same protocol as described in the previous subsection was followed with the addition of Mito-TEMPO (0.1 mM) during the preincubation with BrP, NF, or NF-Br. In this case succinate was used as a respiratory substrate in the absence of rotenone in order to allow the formation of ROS via the electron reverse from complex II to complex I. At predetermined time intervals, 20 μL of each sample was loaded into glass capillaries and flame-sealed. To guarantee thermal stability, the sealed capillaries were subsequently placed inside a standard 4 mm quartz EPR-sample tube that had been lightly lubricated with silicone oil. As described in a previous subsection, a 9 GHz Bruker Elexsys E500 spectrometer was used to record the EPR spectra. During acquisition, the sample temperature was maintained at 37 °C by directing thermostated nitrogen gas through a quartz dewar. Mito-TEMPO EPR signals were analyzed by double integration using the Bruker software package.

[4] = test system: U-87 MG cells (2D); experiment: 2D U-87 cell viability assay (PrestoBlue); format: cell-based, human
Protocol: Cells were seeded in 48-well plates at approximately 3 × 10^4 cells per well in DMEM culture medium supplemented with 10% FBS. U-87 MG cell lines from human brain were initially cultured in 25 cm^2 flasks, using DMEM supplemented with FBS 10%, P/S 2%, and L/GLUT 2 mM, in a humidified incubator (37 °C/5% CO2). After 24 h, once cells adhered, they were treated in parallel with NF-BrP (BrP, 5 μM), NF-BrP-TMZ (BrP and TMZ, 5 μM), and BrP at concentrations of 30, 50, 100, and 150 μM, for 24, 48, and 72 h. Untreated cells served as the controls. All experiments were performed under standard cell culture conditions (95% relative humidity, 5% CO2, 37 °C). At the end of each incubation time, cell viability was assessed using the PrestoBlue assay (ThermoFisher Scientific), according to the manufacturer’s protocol. Cells were incubated with the reagent for 1 h, and absorbance was obtained at 570 nm with 600 nm as the reference wavelength with a BioTek Synergy HT microplate reader. Results are expressed as the percentage of viable cells relative to the untreated controls.

Row | Structure (SMILES) | reduction in cell viability by free TMZ [1] | inhibition of ADP-stimulated respiration, pyruvate + malate [2] | inhibition of ADP-stimulated respiration, succinate + rotenone [2] | effect on mitochondrial ROS production (slope of mito-TEMPO decay) [3] | reduction of U-87 cell viability by free BrP at 150 μM ([4]; free drug 150 μM, prolonged exposure) | concentrations at which a decrease in U-87 cell viability is observed ([4]; free drug, 24, 48 and 72 h)
1 | Cn1nnc2c(C(N)=O)ncn2c1=O [TMZ, temozolomide] | 40% |  |  |  |  | 
2 | O=C(O)C(=O)CBr [BrP, 3-bromopyruvic acid] |  | about 50% | about 50% | reduces the slope in a dose-dependent manner | no more than 20% | 50 to 150 µM and > 50 µM
